# Data: US20170137410A1, “FUSED CYCLOALKYL-PYRIMIDINE COMPOUNDS AND USES THEREOF” (Medivation Technologies, Inc., priority 2014, published 2017)
# Key:
# Format in all cases: biochemical
# FLT3 (ITD) = target: T1, FLT3 (ITD) (Homo sapiens, UniProt P36888); assay: HotSpot kinase assay against FLT3 (ITD); conditions: HotSpot 33P assay, ATP 10 μM
# T1 sequence (P36888 1-993): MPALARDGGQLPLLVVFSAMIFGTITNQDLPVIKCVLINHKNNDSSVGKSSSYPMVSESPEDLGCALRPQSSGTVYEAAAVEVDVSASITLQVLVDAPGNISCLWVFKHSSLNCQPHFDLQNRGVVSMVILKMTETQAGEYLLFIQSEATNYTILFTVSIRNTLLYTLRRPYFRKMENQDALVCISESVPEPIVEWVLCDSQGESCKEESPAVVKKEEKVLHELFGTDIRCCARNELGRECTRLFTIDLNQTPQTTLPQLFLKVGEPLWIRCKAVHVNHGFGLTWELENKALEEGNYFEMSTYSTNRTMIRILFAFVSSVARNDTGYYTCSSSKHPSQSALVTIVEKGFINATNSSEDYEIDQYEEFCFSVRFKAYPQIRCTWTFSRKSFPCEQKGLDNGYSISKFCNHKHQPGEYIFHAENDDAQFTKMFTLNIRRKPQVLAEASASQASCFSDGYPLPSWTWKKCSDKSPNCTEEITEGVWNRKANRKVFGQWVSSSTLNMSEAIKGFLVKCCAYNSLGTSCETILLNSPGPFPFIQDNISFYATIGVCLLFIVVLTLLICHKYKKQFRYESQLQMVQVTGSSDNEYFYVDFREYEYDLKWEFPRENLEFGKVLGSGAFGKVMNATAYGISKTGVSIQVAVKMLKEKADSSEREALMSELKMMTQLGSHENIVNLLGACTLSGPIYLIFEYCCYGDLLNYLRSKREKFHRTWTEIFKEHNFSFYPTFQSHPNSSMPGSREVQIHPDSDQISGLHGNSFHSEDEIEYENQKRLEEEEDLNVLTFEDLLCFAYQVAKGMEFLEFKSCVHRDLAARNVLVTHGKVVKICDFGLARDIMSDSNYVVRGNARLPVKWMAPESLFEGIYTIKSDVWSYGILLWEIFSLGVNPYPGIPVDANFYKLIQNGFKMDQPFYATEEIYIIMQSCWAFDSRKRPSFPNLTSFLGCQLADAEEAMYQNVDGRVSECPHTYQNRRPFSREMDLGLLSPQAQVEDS
# Experimental: Kinase assays were performed using test compounds against a panel of FLT3 kinases: FLT3; FLT3 (D835Y); and FLT3 (ITD). Compounds were prepared as 10 mM stock solutions in DMSO prior to use in the assay. Each compound was tested at 10 concentrations with three-fold serial dilution starting at 1 μM against the three kinases. The control compound, staurosporine, was tested at 10 concentrations with four-fold serial dilution starting at 20 μM. IC50 values and curve fits were obtained using Prism (GraphPad Software). The screening was performed using the “HotSpot” assay platform. The assay measures the conversion of a peptide substrate to ^33P-labelled phosphorylated product. Briefly, specific kinase/substrate pairs along with required cofactors were prepared in reaction buffer. Specifically, the substrate was prepared in reaction buffer (20 mM Hepes, pH 7.5; 10 mM MgCl2; 1 mM EGTA; 0.02% Brij35; 0.02 mg/mL BSA; 0.1 mM Na3VO4; 2 mM DTT; 1% DMSO), followed by delivery of any required cofactor to the resulting substrate solution. The corresponding kinase was delivered into the substrate solution and the reaction mixture was mixed gently. Compound was delivered into the reaction mixture, followed 15-20 min later by addition of a mixture of ATP (Sigma, St. Louis Mo.) and ^33P ATP (specific activity 0.01 μCi/μL final; Perkin Elmer, Waltham, Mass.) to a final concentration of 10 μM to initiate the reaction. Reactions were carried out at RT for 120 min, followed by spotting of the reactions onto P81 ion exchange filter paper (Whatman #3698-915; Whatman Inc., Piscataway, N.J.). Unbound phosphate was removed by extensive washing of filters in 0.75% phosphoric acid. […] The percent of enzyme inhibition was calculated based on the percent of remaining kinase activity. IC50 values were determined.
# ABL2/ARG = ABL2/ARG (Homo sapiens, UniProt P42684); assay: HotSpot kinase assay against ABL2/ARG; conditions: HotSpot 33P assay, ATP 10 μM-30 μM
# Experimental: (§1) The screening was performed using the “HotSpot” assay platform. The assay measures the conversion of a peptide substrate to ^33P-labelled phosphorylated product. Briefly, specific kinase/substrate pairs along with required cofactors were prepared in reaction buffer. Specifically, the substrate was prepared in reaction buffer (20 mM Hepes, pH 7.5; 10 mM MgCl2; 1 mM EGTA; 0.02% Brij35; 0.02 mg/mL BSA; 0.1 mM Na3VO4; 2 mM DTT; 1% DMSO), followed by delivery of any required cofactor to the resulting substrate solution. The corresponding kinase was delivered into the substrate solution and the reaction mixture was mixed gently. Compound was delivered into the reaction mixture, followed 15-20 minutes later by addition of a mixture of ATP (Sigma, St. Louis Mo.) and ^33P ATP (specific activity 0.01 μCi/μL final; Perkin Elmer, Waltham, Mass.) to a final concentration of 10 μM-30 μM to initiate the reaction. Reactions were carried out at RT for 120 min, followed by spotting of the reactions onto P81 ion exchange filter paper (Whatman #3698-915; Whatman Inc., Piscataway, N.J.). Unbound phosphate was removed by extensive washing of filters in 0.75% phosphoric acid. […] The percent of enzyme inhibition was calculated based on the percent of remaining kinase activity. IC50 values and curve fits were obtained using Prism (GraphPad Software).
# ABL1 = ABL1 (Homo sapiens, UniProt P00519); assay: HotSpot kinase assay against ABL1; conditions: HotSpot 33P assay, ATP 10 μM-30 μM
# Experimental: as §1
# ROS/ROS1 = ROS/ROS1 (Homo sapiens, UniProt P08922); assay: HotSpot kinase assay against ROS/ROS1; conditions: HotSpot 33P assay, ATP 10 μM-30 μM
# Experimental: as §1
# Sequence of ABL2/ARG (P42684 whole entry): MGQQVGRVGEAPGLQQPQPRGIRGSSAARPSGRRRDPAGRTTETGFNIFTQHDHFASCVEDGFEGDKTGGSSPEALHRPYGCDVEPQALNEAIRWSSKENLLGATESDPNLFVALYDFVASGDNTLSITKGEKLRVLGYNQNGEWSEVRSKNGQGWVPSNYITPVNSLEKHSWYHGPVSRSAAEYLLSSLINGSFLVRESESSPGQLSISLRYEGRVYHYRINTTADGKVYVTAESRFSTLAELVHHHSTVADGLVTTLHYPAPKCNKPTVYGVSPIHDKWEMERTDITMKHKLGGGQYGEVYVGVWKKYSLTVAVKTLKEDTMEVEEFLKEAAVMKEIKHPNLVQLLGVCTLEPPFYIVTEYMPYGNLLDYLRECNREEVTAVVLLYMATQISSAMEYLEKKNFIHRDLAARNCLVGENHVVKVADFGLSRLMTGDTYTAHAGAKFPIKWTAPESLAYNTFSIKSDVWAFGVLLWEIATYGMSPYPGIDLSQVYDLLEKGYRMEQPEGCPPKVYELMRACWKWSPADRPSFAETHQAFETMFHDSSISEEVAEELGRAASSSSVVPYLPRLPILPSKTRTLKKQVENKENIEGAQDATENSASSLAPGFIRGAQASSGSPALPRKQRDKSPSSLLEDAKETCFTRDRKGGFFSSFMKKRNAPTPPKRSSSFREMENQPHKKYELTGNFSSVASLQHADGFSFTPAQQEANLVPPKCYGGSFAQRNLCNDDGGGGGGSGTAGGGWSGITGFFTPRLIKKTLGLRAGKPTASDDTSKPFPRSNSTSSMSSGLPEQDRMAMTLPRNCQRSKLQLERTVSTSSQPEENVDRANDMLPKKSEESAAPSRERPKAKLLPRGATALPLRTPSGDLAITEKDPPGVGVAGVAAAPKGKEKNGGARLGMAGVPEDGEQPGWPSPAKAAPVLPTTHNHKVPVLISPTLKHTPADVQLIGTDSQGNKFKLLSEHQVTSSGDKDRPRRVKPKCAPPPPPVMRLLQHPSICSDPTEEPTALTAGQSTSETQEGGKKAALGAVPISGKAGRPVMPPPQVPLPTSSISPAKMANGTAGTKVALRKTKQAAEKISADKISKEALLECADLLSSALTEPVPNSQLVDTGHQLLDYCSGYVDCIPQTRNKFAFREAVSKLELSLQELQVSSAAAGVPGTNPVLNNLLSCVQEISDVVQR
# Sequence of ROS/ROS1 (P08922 28-2347): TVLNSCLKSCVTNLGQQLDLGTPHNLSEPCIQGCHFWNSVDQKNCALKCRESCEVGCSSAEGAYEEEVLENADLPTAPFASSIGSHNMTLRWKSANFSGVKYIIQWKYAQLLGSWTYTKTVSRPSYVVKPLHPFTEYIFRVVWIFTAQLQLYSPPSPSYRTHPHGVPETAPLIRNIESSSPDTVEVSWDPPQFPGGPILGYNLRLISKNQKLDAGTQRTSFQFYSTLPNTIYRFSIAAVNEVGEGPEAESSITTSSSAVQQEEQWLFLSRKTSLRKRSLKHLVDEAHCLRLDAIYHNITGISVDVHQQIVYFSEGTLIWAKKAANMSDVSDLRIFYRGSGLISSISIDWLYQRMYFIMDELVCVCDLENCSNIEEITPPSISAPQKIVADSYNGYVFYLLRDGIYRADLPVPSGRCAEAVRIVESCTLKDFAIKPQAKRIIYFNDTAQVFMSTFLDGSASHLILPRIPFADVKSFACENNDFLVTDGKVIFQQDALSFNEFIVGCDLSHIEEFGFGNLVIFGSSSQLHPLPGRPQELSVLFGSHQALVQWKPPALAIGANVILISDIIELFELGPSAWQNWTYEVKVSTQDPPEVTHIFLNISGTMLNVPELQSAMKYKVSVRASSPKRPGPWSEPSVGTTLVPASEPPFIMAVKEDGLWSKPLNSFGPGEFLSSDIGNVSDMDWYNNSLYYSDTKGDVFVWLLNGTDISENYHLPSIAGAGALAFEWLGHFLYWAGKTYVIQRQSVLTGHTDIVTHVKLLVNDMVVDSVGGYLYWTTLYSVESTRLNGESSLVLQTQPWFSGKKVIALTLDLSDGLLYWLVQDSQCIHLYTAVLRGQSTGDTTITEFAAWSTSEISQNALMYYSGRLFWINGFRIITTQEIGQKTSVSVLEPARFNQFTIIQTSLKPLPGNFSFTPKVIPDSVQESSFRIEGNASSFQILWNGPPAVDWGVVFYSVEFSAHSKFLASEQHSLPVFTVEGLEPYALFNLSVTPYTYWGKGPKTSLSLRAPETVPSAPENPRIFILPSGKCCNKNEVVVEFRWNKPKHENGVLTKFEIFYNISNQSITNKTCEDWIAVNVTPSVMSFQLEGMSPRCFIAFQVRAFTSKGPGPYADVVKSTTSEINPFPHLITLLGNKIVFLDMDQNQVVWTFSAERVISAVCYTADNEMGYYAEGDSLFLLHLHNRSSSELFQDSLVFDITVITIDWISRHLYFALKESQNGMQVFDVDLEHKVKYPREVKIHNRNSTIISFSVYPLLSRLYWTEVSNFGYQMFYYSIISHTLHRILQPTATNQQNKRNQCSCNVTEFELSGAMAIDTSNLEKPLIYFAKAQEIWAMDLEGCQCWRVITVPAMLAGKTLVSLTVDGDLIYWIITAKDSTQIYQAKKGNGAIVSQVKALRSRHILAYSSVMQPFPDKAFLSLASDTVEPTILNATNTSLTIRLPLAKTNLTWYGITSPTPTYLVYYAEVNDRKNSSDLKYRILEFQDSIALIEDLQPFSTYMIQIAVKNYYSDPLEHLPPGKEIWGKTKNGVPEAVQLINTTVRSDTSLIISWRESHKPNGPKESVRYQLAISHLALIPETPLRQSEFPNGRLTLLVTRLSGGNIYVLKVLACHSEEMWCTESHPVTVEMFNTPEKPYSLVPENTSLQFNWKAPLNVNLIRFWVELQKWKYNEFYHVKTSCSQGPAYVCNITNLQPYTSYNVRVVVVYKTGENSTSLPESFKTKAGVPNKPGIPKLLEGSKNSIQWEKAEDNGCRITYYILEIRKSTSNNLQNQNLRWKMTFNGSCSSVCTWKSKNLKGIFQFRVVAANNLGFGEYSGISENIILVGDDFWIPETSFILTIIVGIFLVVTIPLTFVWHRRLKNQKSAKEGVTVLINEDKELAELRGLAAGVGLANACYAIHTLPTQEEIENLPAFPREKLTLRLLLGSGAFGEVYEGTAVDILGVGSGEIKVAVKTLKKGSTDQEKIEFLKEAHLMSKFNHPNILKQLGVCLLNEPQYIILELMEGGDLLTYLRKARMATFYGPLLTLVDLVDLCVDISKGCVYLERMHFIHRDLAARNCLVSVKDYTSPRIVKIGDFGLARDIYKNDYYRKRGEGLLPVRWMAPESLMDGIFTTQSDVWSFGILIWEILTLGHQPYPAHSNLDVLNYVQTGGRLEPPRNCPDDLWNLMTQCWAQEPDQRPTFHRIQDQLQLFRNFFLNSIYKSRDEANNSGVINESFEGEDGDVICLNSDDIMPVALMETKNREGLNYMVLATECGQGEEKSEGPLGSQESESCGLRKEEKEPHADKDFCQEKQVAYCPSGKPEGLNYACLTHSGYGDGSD
# Sequence of ABL1 (P00519 whole entry): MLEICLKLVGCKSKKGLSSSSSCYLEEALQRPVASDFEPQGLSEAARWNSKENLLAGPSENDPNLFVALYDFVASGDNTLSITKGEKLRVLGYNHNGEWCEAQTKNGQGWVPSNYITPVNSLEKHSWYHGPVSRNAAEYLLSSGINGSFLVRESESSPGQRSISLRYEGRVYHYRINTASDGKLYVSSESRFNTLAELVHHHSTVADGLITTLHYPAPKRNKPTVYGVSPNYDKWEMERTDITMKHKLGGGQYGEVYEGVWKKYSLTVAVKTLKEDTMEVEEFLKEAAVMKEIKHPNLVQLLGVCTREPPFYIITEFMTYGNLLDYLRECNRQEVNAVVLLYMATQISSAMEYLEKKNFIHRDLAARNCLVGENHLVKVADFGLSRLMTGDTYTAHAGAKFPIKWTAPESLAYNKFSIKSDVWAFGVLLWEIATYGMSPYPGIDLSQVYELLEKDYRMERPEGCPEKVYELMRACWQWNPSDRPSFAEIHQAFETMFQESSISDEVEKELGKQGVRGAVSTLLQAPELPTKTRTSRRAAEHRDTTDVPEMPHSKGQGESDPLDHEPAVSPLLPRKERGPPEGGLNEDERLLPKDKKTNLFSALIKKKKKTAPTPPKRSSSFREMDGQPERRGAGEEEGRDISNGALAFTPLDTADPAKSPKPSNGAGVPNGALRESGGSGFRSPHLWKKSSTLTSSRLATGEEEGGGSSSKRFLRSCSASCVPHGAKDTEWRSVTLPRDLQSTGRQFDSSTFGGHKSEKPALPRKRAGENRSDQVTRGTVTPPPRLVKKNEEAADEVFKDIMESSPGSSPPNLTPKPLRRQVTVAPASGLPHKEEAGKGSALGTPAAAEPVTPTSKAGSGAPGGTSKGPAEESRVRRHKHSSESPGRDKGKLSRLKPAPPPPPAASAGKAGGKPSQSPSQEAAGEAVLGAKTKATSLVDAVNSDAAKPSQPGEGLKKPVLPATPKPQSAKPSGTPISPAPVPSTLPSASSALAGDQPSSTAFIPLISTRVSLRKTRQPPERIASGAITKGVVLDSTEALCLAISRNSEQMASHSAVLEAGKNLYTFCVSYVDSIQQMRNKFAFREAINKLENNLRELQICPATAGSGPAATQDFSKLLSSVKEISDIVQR
Structure (SMILES),IC50 (FLT3 (ITD)),IC50 (ABL2/ARG),IC50 (ABL1),IC50 (ROS/ROS1)
"CC(C)(C)c1cc(Nc2nc(N3CCC[C@@H]3C(=O)N3CCC(F)(F)CC3)nc3c2CCC3)n[nH]1 [142a, (R)-(1-(4-((5-(tert-butyl)-1H-pyrazol-3-yl)amino)-6,7-dihydro-5H-cyclopenta[d]pyrimidin-2-yl)pyrrolidin-2-yl)(4,4-difluoropiperidin-1-yl)methanone]",> 1000 nM,> 1000 nM,> 1000 nM,> 1000 nM
"CCC(=O)N1CCN(C(=O)[C@H]2CCCN2c2nc3c(c(Nc4cc(C5CCCC5)[nH]n4)n2)CCC3)CC1 [143a, 1-(4-((4-((5-cyclopentyl-1H-pyrazol-3-yl)amino)-6,7-dihydro-5H-cyclopenta[d]pyrimidin-2-yl)-D-prolyl)piperazin-1-yl)propan-1-one]",13.7 nM,398 nM,> 1000 nM,52.2 nM
"CCC(=O)N1CCN(C(=O)[C@@H]2CCCN2c2nc3c(c(Nc4cc(C5CCCC5)[nH]n4)n2)CCC3)CC1 [143b, (S)-1-(4-((4-((5-cyclopentyl-1H-pyrazol-3-yl)amino)-6,7-dihydro-5H-cyclopenta[d]pyrimidin-2-yl)prolyl)piperazin-1-yl)propan-1-one]",310 nM,> 1000 nM,> 1000 nM,> 1000 nM
"CC1(C(=O)N2CCC(F)(F)CC2)CCCN1c1nc2c(c(Nc3cc(C4CCCC4)[nH]n3)n1)CCC2 (racemic) [compound 146, (1-(4-((5-cyclopentyl-1H-pyrazol-3-yl)amino)-6,7-dihydro-5H-cyclopenta[d]pyrimidin-2-yl)-2-methylpyrrolidin-2-yl)(4,4-difluoropiperidin-1-yl)methanone]",1480 nM,,,

# Second part, the compound after the results:
IC50 (FLT3 (ITD)),IC50 (ABL2/ARG),IC50 (ABL1),IC50 (ROS/ROS1),Structure (SMILES)
435 nM,,,,"CCN(C(=O)[C@@H]1CCCN1c1nc2c(c(Nc3cc(C(C)C)[nH]n3)n1)CCC2)c1nccs1 [145b, (S)—N-ethyl-1-(4-((5-isopropyl-1H-pyrazol-3-yl)amino)-6,7-dihydro-5H-cyclopenta[d]pyrimidin-2-yl)-N-(thiazol-2-yl)pyrrolidine-2-carboxamide]"
> 1000 nM,> 1000 nM,> 1000 nM,> 1000 nM,"CCN(C(=O)[C@@H]1CCCN1c1nc2c(c(Nc3cc(C(C)(C)C)[nH]n3)n1)CCC2)c1nccs1 [144b, (S)-1-(4-((5-(tert-butyl)-1 H-pyrazol-3-yl)amino)-6,7-dihydro-5H-cyclopenta[d]pyrimidin-2-yl)-N-ethyl-N-(thiazol-2-yl)pyrrolidine-2-carboxamide]"
> 1000 nM,> 1000 nM,> 1000 nM,> 1000 nM,"CC(C)(C)c1cc(Nc2nc(N3CCC[C@H]3C(=O)N3CCC(F)(F)CC3)nc3c2CCC3)n[nH]1 [142b, (S)-(1-(4-((5-(tert-butyl)-1H-pyrazol-3-yl)amino)-6,7-dihydro-5H-cyclopenta[d]pyrimidin-2-yl)pyrrolidin-2-yl)(4,4-difluoropiperidin-1-yl)methanone]"
167 nM,41 nM,316 nM,4.41 nM,"CC(C)c1cc(Nc2nc(N3CCC[C@H]3C(=O)N(C)c3nccs3)nc3c2CCC3)n[nH]1 [68b, (S)-1-(4-((5-isopropyl-1H-pyrazol-3-yl)amino)-6,7-dihydro-5H-cyclopenta[d]pyrimidin-2-yl)-N-methyl-N-(thiazol-2-yl)pyrrolidine-2-carboxamide]"
